Assay in all cases: DTP human tumour cell line panel, 48 h
Experiment [1] has as its system CCRF-CEM.
Experiment [2] relates to HCC 2998.
In experiment [3] the test system is HCT-15.
The subject of experiment [4] is HOP-62.
In experiment [5] the test system is Hs-578T.
In experiment [6] the test system is K562.
Experiment [7] has as its system M14.
Experiment [8] has as its system MCF7.
For experiment [9], the system named is MDA-N.
The test system of experiment [10] is NCI-H23.
The subject of experiment [11] is NCI-H460.
Experiment [12] has as its system OVCAR-8.
Experiment [13] concerns RXF 393.
Experiment [14] deals with SF-268.
The test system of experiment [15] is SF-539.
Experiment [16] has as its system SK-MEL-28.
In experiment [17] the test system is SK-OV-3.
Experiment [18] deals with SN12C.
For experiment [19], the system named is UACC-62.
For experiment [20], the system named is UO-31.

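Dose response: 5 concentrations. Exposure: 48 h. Format: 96-well plates. Endpoint: linear interpolation; highest concentration if not reached. Here, GI50 denotes the concentration required for 50% inhibition of growth.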 The source made the active and inactive calls. Rule as the data show it: active = GI50 up to about 1.1 µM and inactive = higher.

By GI50 is commonly meant the concentration giving 50% growth inhibition. For the compound `COc1ccc(C2=CN3CCC[C@H]3C=C2c2cc(O)c(OC)c(OC)c2)cc1OC`, the GI50 in [1] is 0.0033 µM (active); in experiment [2], 0.00482 µM (active); in [3], 0.00362 µM; in [4] it was 0.0065 µM (active); in experiment [5], 0.00539 µM (active); in experiment [6], 0.00339 µM (active). For the same compound, the GI50 in experiment [7] is 0.00325 µM (active); in [8], 0.005 µM (active); in experiment [9] it was 0.00337 µM (active); in [10], 0.00378 µM (active); in [11], 0.00316 µM (active); in [12] it was 0.00377 µM (active). Moreover, the GI50 is 0.00424 µM (active) in experiment [13]; 0.00454 µM (active) in experiment [14]; 0.00505 µM (active) in [15]; 0.0045 µM (active) in experiment [16]; 0.00564 µM (active) in experiment [17]; 0.00403 µM (active) in experiment [18]. In addition, the GI50 was 0.00405 µM (active) in experiment [19] and 0.0108 µM (active) in experiment [20].
For `Cc1ccnc2sc3ccccc3c(=O)c12`, the GI50 is 40.9 µM (inactive) in experiment [1]; 42.3 µM (inactive) in experiment [2]; 52.2 µM in [3]; 98.4 µM (inactive) in [4]; 27.3 µM (inactive) in experiment [5]; 42.8 µM (inactive) in [6]. Further, the GI50 in experiment [7] is 44.9 µM (inactive); in experiment [8] it was 38.4 µM (inactive); in experiment [9] it was 39.4 µM (inactive); in experiment [10], 59 µM (inactive); in experiment [11], 24 µM (inactive); in experiment [12] it was 43.1 µM (inactive). The GI50 in [13] was 23.9 µM (inactive); in experiment [14], 32.7 µM (inactive); in [15], 33.4 µM (inactive); in [16], 48.9 µM (inactive); in experiment [17] it was 37.3 µM (inactive); in [18] it was 40.4 µM (inactive). The GI50 in experiment [19] was 17.6 µM (inactive); in experiment [20] it was 25.4 µM (inactive).
In the case of `Nc1ccc(C(=O)Nc2ccccc2N)cc1` [DINALINE], the GI50 in experiment [1] is 11.4 µM (inactive); in experiment [2], 17.5 µM (inactive); in experiment [3], 54 µM; in [4] it was 18.7 µM (inactive); in experiment [5] it was 22.3 µM (inactive); in [6] it was 14.1 µM (inactive). Further, the GI50 in [7] was 65.2 µM (inactive); in experiment [8] it was 20.9 µM (inactive); in [9] it was 32.1 µM (inactive); in [10], 29.1 µM (inactive); in experiment [11] it was 18.5 µM (inactive); in experiment [12], 8.99 µM (inactive). The GI50 is 38.2 µM (inactive) in [13]; 31.1 µM (inactive) in experiment [14]; 30.4 µM (inactive) in experiment [15]; 24.5 µM (inactive) in [16]; > 100 µM (inactive) in experiment [17]; 60 µM (inactive) in [18]. Also, the figures for the GI50 in [19] and in experiment [20] were 16.1 µM (inactive) and 42.6 µM (inactive), respectively.
`CC(=O)[C@H]1CC[C@H]2[C@@H]3CCC4=CC(=O)CC[C@]4(C)[C@H]3CC[C@]12C` [PROGESTERONE]: the GI50 in experiment [1] is 15.7 µM (inactive); in experiment [2] it was 16.9 µM (inactive); in [3] it was 18.9 µM; in [4] it was 20.6 µM (inactive); in [5], 3.3 µM (inactive); in experiment [6] it was 10.6 µM (inactive). Also, the GI50 in [7] is 17.5 µM (inactive); in experiment [8] it was 21.7 µM (inactive); in [9], 16.7 µM (inactive); in [10], 18.1 µM (inactive); in experiment [11], 18.6 µM (inactive); in experiment [12] it was 18.4 µM (inactive). The GI50 was 22.4 µM (inactive) in experiment [13]; 23.2 µM (inactive) in experiment [14]; 17.6 µM (inactive) in experiment [15]; 18.4 µM (inactive) in [16]; 20.4 µM (inactive) in experiment [17]; 18.6 µM (inactive) in experiment [18]. In addition, the GI50 in experiment [19] is 14.7 µM (inactive); in experiment [20], 11.4 µM (inactive).

Values taken from ChEMBL document CHEMBL1201862, “PubChem BioAssay data set” (2004).
